Assay results as given in US8299028B2, “Chimeric peptide antagonist for GPCR135 or GPCR142” (Janssen Pharmaceutica NV, priority 2007, dated 2012).

Assays:
[1] = molecular target: T1, endogenous GPCR135 from rat brain slices (Rattus norvegicus, UniProt Q5Y987); assay: Autoradiography, displacement of 125I-R3/I5 binding on rat brain slices; settings: at 10 nM
T1 construct: using endogenous GPCR135 from rat brain slices in autoradiographic studies; from tissue; host or cells: rat brain slices
T1 sequence (Q5Y987 1-469): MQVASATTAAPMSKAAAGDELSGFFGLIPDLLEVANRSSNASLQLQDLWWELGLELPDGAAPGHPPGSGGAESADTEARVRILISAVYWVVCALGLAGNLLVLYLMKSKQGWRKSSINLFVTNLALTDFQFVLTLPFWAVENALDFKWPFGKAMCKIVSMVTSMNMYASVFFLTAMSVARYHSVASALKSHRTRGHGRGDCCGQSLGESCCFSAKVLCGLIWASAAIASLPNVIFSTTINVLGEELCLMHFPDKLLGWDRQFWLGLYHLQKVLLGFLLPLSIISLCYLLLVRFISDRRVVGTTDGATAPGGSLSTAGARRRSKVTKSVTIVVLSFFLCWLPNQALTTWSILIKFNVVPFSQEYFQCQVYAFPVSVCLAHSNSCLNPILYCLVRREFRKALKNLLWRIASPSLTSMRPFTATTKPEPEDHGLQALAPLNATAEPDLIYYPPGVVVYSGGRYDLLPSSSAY
Procedure: FIG. 5 provides autoradiograms of ^125I-R3/I5 binding sites in the rat brain (A) with competition by relaxin-3 (10 nM, B) or R3(BΔ23-27)R/I5 (10 nM, C), and a dose-response curve for R3(BΔ23-27)R/I5 as the competitor in the binding assay on rat brain slices (D). A dose-response curve for human relaxin-3 is included for comparison (D). Nonspecific binding was determined using 1 μM unlabeled relaxin-3.
R3(BΔ23-27)R/I5 peptide was evaluated pharmacologically using endogenous GPCR135 from rat brain slices in autoradiographic studies as described by Sutton et al., 2004. Briefly, ^125I-R3/I5 was applied in a binding buffer to rat brain slices. Unlabeled human relaxin-3 or R3(BΔ23-27)R/I5 was used at various concentrations as competitors to displace GPCR135 binding of ^125I-R3/I5.

satiated Wistar rats = assay: Food intake in satiated Wistar rats after i.c.v. administration; assay type: in vivo, rat; settings: 10 μg i.c.v.
Procedure: FIG. 6 illustrates food consumption in satiated Wistar rats during the first hour of the test session (i.e., Day 2) following i.c.v. administration of vehicle (5 μL)+vehicle (5 μL), vehicle (5 μl)+R3/I5 (10 μg), R3(BΔ23-27)R/I5 (10 μg)+vehicle (5 μl), and R3(BΔ23-27)R/I5 (10 μg)+R3/I5 (10 μg) (mean±SEM; n=5-6 per group) (A).
Experimentally naïve, male Wistar rats (Charles River, Wilmington, Mass.) weighing 200-225 grams at the time of arrival were used. The animals were initially housed at two per cage and given a one-week acclimation period to the vivarium prior to i.c.v. cannula implantation. All animals had free access to food and water throughout the experiment and were not food deprived prior to behavioral testing. The animal colony was maintained at 22±2° C. during a 12-hr light/12-hr dark illumination cycle with lights on from 0600 to 1800 hours. […]
A predetermined amount of standard rat chow (Formulab Diet No. 5008, which contained 23.0% protein and 6.5% fat) was placed in the food hopper at the start of the 4 hr session(s). The amount of food remaining in the food hopper was determined by subtracting the weight of the food at 1 and 4 hrs from the initial food weight (i.e., weight of the food at the start of the session). Food crumbs detected on the floor of the apparatus were included in the determination of food weights. […]

| Substance | displacement of 125I-R3/I5 binding sites in rat brain sections [1] | total food intake over 4 hours (satiated Wistar rats; 4 hours) | food intake, first hour (satiated Wistar rats; first hour) |
| --- | --- | --- | --- |
| Relaxin-3: Wild type human relaxin-3, B-chain SEQ ID NO:12, A-chain SEQ ID NO:13; positive control | Full displacement |  |  |
| R3/I5: Chimeric peptide of relaxin-3 B-chain (SEQ ID NO:12) and INSL5 A-chain (SEQ ID NO:19); selective GPCR135 agonist (beta RAAPYGVRLCGREFIRAVIFTCGGSRW; alpha EDLQTLCCTDGCSMTDLSALC; INSL5 A-chain; listed as Homo Sapiens) |  | food intake was stimulated | food intake was stimulated |
